Usually Ki stands for the equilibrium dissociation constant of an inhibitor or competing ligand from its target. A high value points to lower affinity.

Holding throughout (test): Determination of Inhibition Constants
Conditions in all cases: pH 8; 25 °C

Experiment [1] addresses Urokinase-type plasminogen activator (Homo sapiens, UniProt P00749). The protocol: (§1) The measurements were carried out on a microplate reader. Two concentrations of the substrate and five concentrations of the inhibitor were used in the assay. […] The Ki-values were calculated according to Dixon using a linear regression program. The Ki-values reported are means from at least three determinations.

Experiment [2] concerns the target Tissue-type plasminogen activator (Homo sapiens, UniProt P00750). The protocol: as §1
The next experiment has as its target T1, Serine protease 1 (Bos taurus, UniProt P00760).
T1 sequence (P00760 whole entry): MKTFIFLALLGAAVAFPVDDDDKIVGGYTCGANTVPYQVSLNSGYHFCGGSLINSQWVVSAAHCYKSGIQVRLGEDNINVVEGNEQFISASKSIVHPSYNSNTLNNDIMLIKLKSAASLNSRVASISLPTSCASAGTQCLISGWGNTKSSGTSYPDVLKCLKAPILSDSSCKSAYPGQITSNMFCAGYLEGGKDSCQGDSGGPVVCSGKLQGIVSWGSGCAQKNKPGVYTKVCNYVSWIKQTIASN
The protocol: as §1

Chain of Tissue-type plasminogen activator (P00750 whole entry): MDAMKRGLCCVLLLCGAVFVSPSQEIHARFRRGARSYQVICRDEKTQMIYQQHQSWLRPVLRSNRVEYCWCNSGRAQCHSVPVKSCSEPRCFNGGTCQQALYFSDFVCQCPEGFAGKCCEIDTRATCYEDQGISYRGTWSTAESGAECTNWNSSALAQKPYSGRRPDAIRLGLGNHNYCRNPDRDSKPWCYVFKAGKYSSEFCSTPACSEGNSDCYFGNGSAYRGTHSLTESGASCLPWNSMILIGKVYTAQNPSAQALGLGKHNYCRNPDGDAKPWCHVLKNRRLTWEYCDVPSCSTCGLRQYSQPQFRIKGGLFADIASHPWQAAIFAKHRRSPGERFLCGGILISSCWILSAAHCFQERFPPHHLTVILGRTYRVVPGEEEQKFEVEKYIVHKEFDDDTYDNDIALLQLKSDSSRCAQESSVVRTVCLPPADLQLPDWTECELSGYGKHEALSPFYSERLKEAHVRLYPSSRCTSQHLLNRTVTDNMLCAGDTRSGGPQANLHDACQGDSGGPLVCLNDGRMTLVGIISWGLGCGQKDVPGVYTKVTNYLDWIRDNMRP

Take `CCOC(=O)N1CCN(C(=O)C(Cc2cccc(C(=N)N)c2)NS(=O)(=O)c2c(C(C)C)cc(C(C)C)cc2C(C)C)CC1` (stereo not given): the Ki in experiment [1] was 0.41 µM; in experiment [2] it was 4.9 µM; on Serine protease 1 it was 0.037 µM.

Regarding `N=C(N)NC(=O)c1nc(Cl)c(N)nc1N` [3,5-diamino-N-carbamimidoyl-6-chloropyrazine-2-carboxamide], the Ki in experiment [2] is more than 1000 µM; at Serine protease 1 it was 32 µM.

For `CC(C)c1cc(C(C)C)c(S(=O)(=O)N[C@@H](Cc2cccc(C(=N)N)c2)C(=O)N2CCN(C(=O)CCN)CC2)c(C(C)C)c1` [3-[3-(4-beta-alanylpiperazin-1-yl)-3-oxo-2-({[2,4,6-tris(1-methylethyl)phenyl]sulfonyl}amino)propyl]benzenecarboximidamide], the Ki in experiment [2] worked out at 8.7 µM; at Serine protease 1, 0.6 µM.

Regarding `NC(N)=Nc1ccc(CNC(=O)NC23CC4CC(CC(C4)C2)C3)cc1` [3-adamantan-1-yl-1-[(4-carbamimidamidophenyl)methyl]urea], the Ki in experiment [1] is 2.4 µM; in experiment [2], more than 1000 µM; on Serine protease 1 it was 46 µM.

For the origin of these results see BindingDB's records for doi:10.1006/jmbi.2000.3966 (Max-Planck-Institut Fuer Biochemie, 2000).
